Assay results as given in ChEMBL document CHEMBL1201862, “PubChem BioAssay data set” (2004).
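In this assay, cells in 96-well plates receive the compound at five concentrations for 48 hours. Endpoints are linearly interpolated between the surrounding concentrations. GI50: concentration for 50% inhibition of growth.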 The source made the active and inactive calls. No stated cut-off is given here; in the data, active = GI50 up to about 1.1 µM and inactive = higher.

Legend:
Assay in all cases: DTP human tumour cell line panel, 48 h
[1] = system: SK-MEL-5
[2] = system: NCI/ADR-RES
[3] = system: UACC-62
[4] = system: NCI-H460
[5] = system: SK-MEL-28
[6] = system: MOLT-4
[7] = system: TK-10
[8] = system: MDA-N
[9] = system: SN12C
[10] = system: SR
[11] = system: NCI-H522
[12] = system: COLO 205
[13] = system: HOP-62
[14] = system: U-251
[15] = system: A498
[16] = system: MCF7
[17] = system: SF-295
[18] = system: BT-549
[19] = system: ACHN
[20] = system: NCI-H23
[21] = system: SK-MEL-2
[22] = system: EKVX
[23] = system: Hs-578T
[24] = system: CAKI-1
[25] = system: SF-268
[26] = system: HL-60
[27] = system: HCT-116
[28] = system: CCRF-CEM
[29] = system: UACC-257
[30] = system: Malme-3M
[31] = system: RPMI-8226
[32] = system: 786-0
[33] = system: T47D
[34] = system: SK-OV-3
[35] = system: OVCAR-3
[36] = system: OVCAR-5
[37] = system: HOP-92
[38] = system: SNB-19
[39] = system: HT-29
[40] = system: SNB-75
[41] = system: MDA-MB-231
[42] = system: OVCAR-4
[43] = system: SF-539
[44] = system: LOX IMVI
[45] = system: M14
[46] = system: OVCAR-8
[47] = system: KM12
[48] = system: MDA-MB-435
[49] = system: UO-31
[50] = system: A549
[51] = system: PC-3
[52] = system: RXF 393
[53] = system: DU-145
[54] = system: HCT-15
[55] = system: SW-620
[56] = system: IGROV-1
[57] = system: K562
[58] = system: HCC 2998
[59] = system: NCI-H226

Which GI50 [1] does the source give for `O=C(/C=C/c1ccc(O)cc1)c1cc(-c2cc(CCC(=O)c3ccc(O)cc3O)ccc2O)c(O)cc1O` here?
The GI50 was 25.2 µM (inactive).

And the GI50 [2]?
The GI50 was > 50 µM (inactive).

And the GI50 [3]?
The GI50 was 22.8 µM (inactive).

What about the GI50 [4] of the same compound?
The GI50 was 23.8 µM (inactive).

And the GI50 [5]?
Its GI50 is 21.7 µM (inactive).

What about the GI50 [6] of the same compound?
The GI50 was 7.23 µM (inactive).

And the GI50 [7]?
The GI50 was 18.1 µM (inactive).

What about the GI50 [8] of the same compound?
Its GI50 is 19.1 µM (inactive).

What about the GI50 [9] of the same compound?
Its GI50 is 32.2 µM (inactive).

What about the GI50 [10] of the same compound?
The GI50 was 10.4 µM (inactive).

And the GI50 [11]?
Its GI50 is 22.3 µM (inactive).

And the GI50 [12]?
Its GI50 is 11.4 µM (inactive).

What about the GI50 [13] of the same compound?
The GI50 was 27.4 µM (inactive).

What about the GI50 [14] of the same compound?
The GI50 was 17.5 µM (inactive).

What about the GI50 [15] of the same compound?
The GI50 was 24.8 µM (inactive).

What about the GI50 [16] of the same compound?
The GI50 was 28.1 µM (inactive).

And the GI50 [17]?
The GI50 was 22.3 µM (inactive).

And the GI50 [18]?
The GI50 was 36.1 µM (inactive).

And the GI50 [19]?
The GI50 was > 50 µM (inactive).

And the GI50 [20]?
The GI50 was 35.9 µM (inactive).

And the GI50 [21]?
Its GI50 is 33.7 µM (inactive).

What about the GI50 [22] of the same compound?
The GI50 was > 50 µM (inactive).

What about the GI50 [23] of the same compound?
The GI50 was 23.7 µM (inactive).

What about the GI50 [24] of the same compound?
Its GI50 is > 50 µM (inactive).

What about the GI50 [25] of the same compound?
Its GI50 is 22.4 µM (inactive).

And the GI50 [26]?
The GI50 was 17.9 µM (inactive).

And the GI50 [27]?
The GI50 was 19.8 µM (inactive).

What about the GI50 [28] of the same compound?
Its GI50 is 13.1 µM (inactive).

And the GI50 [29]?
The GI50 was > 50 µM (inactive).

What about the GI50 [30] of the same compound?
The GI50 was 24.9 µM (inactive).

And the GI50 [31]?
The GI50 was 16.3 µM (inactive).

What about the GI50 [32] of the same compound?
Its GI50 is 25.6 µM (inactive).

What about the GI50 [33] of the same compound?
The GI50 was 30.6 µM (inactive).

And the GI50 [34]?
Its GI50 is 16.9 µM (inactive).

What about the GI50 [35] of the same compound?
The GI50 was 14.1 µM (inactive).

What about the GI50 [36] of the same compound?
The GI50 was > 50 µM (inactive).

And the GI50 [37]?
Its GI50 is 15.2 µM (inactive).

What about the GI50 [38] of the same compound?
The GI50 was 26.8 µM (inactive).

What about the GI50 [39] of the same compound?
The GI50 was 14.4 µM (inactive).

What about the GI50 [40] of the same compound?
The GI50 was 19.3 µM (inactive).

What about the GI50 [41] of the same compound?
The GI50 was 37.8 µM (inactive).

What about the GI50 [42] of the same compound?
The GI50 was 19.7 µM (inactive).

What about the GI50 [43] of the same compound?
The GI50 was 10.8 µM (inactive).

And the GI50 [44]?
The GI50 was 19.5 µM (inactive).

What about the GI50 [45] of the same compound?
The GI50 was 41.6 µM (inactive).

What about the GI50 [46] of the same compound?
The GI50 was 25.5 µM (inactive).

What about the GI50 [47] of the same compound?
Its GI50 is 19.8 µM (inactive).

What about the GI50 [48] of the same compound?
The GI50 was 17 µM (inactive).

And the GI50 [49]?
Its GI50 is > 50 µM (inactive).

What about the GI50 [50] of the same compound?
The GI50 was > 50 µM (inactive).

And the GI50 [51]?
Its GI50 is 22.6 µM (inactive).

What about the GI50 [52] of the same compound?
Its GI50 is 41.5 µM (inactive).

And the GI50 [53]?
Its GI50 is 32.4 µM (inactive).

What about the GI50 [54] of the same compound?
The GI50 was > 50 µM.

What about the GI50 [55] of the same compound?
Its GI50 is 29.9 µM (inactive).

And the GI50 [56]?
Its GI50 is 16.2 µM (inactive).

And the GI50 [57]?
Its GI50 is 17.7 µM (inactive).

`N#CC1(C#N)C(c2ccccc2)C=CC(c2ccc([N+](=O)[O-])cc2)C1(C#N)C#N` (centres undefined) was tested. Which GI50 [1] did it give?
Its GI50 is 10.7 µM (inactive).

And the GI50 [2]?
The GI50 was 8.38 µM (inactive).

What about the GI50 [3] of the same compound?
The GI50 was 12 µM (inactive).

And the GI50 [4]?
Its GI50 is 30.3 µM (inactive).

What about the GI50 [5] of the same compound?
Its GI50 is 15.8 µM (inactive).

And the GI50 [6]?
The GI50 was 2.3 µM (inactive).

And the GI50 [7]?
The GI50 was 3.65 µM (inactive).

And the GI50 [8]?
Its GI50 is 6.22 µM (inactive).

What about the GI50 [9] of the same compound?
Its GI50 is 4.83 µM (inactive).

And the GI50 [10]?
Its GI50 is 2.53 µM (inactive).

And the GI50 [11]?
Its GI50 is 3.21 µM (inactive).

What about the GI50 [12] of the same compound?
Its GI50 is 1.57 µM (inactive).

What about the GI50 [13] of the same compound?
Its GI50 is 17.3 µM (inactive).

What about the GI50 [14] of the same compound?
Its GI50 is 20.4 µM (inactive).

What about the GI50 [15] of the same compound?
The GI50 was 16.6 µM (inactive).

And the GI50 [58]?
Its GI50 is 19.4 µM (inactive).

And the GI50 [16]?
Its GI50 is 5.98 µM (inactive).

What about the GI50 [17] of the same compound?
Its GI50 is 18.5 µM (inactive).

And the GI50 [18]?
The GI50 was 10.4 µM (inactive).

And the GI50 [19]?
The GI50 was 3.43 µM (inactive).

What about the GI50 [59] of the same compound?
The GI50 was 17.3 µM (inactive).

What about the GI50 [20] of the same compound?
The GI50 was 12.4 µM (inactive).

And the GI50 [21]?
The GI50 was 17.1 µM (inactive).

And the GI50 [22]?
The GI50 was 14.8 µM (inactive).

And the GI50 [23]?
The GI50 was 17.9 µM (inactive).

And the GI50 [24]?
The GI50 was 3.66 µM (inactive).

What about the GI50 [25] of the same compound?
Its GI50 is 17.5 µM (inactive).

What about the GI50 [26] of the same compound?
The GI50 was 0.223 µM (active).

And the GI50 [27]?
Its GI50 is 3.8 µM (inactive).

And the GI50 [28]?
Its GI50 is 0.278 µM (active).

And the GI50 [29]?
The GI50 was 16.3 µM (inactive).

And the GI50 [31]?
Its GI50 is 2.91 µM (inactive).

And the GI50 [32]?
Its GI50 is 2.67 µM (inactive).

And the GI50 [33]?
The GI50 was 2.61 µM (inactive).

And the GI50 [34]?
Its GI50 is 18.5 µM (inactive).

And the GI50 [35]?
The GI50 was 9.98 µM (inactive).

And the GI50 [36]?
Its GI50 is 17.1 µM (inactive).

And the GI50 [37]?
Its GI50 is 3.43 µM (inactive).

And the GI50 [38]?
The GI50 was 15.1 µM (inactive).

What about the GI50 [39] of the same compound?
Its GI50 is 3.61 µM (inactive).

What about the GI50 [40] of the same compound?
The GI50 was 24.7 µM (inactive).

And the GI50 [41]?
The GI50 was 13.4 µM (inactive).

And the GI50 [42]?
Its GI50 is 16.5 µM (inactive).

What about the GI50 [43] of the same compound?
Its GI50 is 2.81 µM (inactive).

What about the GI50 [44] of the same compound?
Its GI50 is 2.35 µM (inactive).

And the GI50 [45]?
Its GI50 is 4.59 µM (inactive).

And the GI50 [46]?
Its GI50 is 11.2 µM (inactive).

And the GI50 [47]?
The GI50 was 22.1 µM (inactive).

What about the GI50 [48] of the same compound?
Its GI50 is 3.37 µM (inactive).

What about the GI50 [49] of the same compound?
The GI50 was 13.7 µM (inactive).

And the GI50 [50]?
The GI50 was 17.7 µM (inactive).

And the GI50 [51]?
Its GI50 is 12.2 µM (inactive).

And the GI50 [53]?
The GI50 was 14.2 µM (inactive).

And the GI50 [54]?
The GI50 was 3.69 µM.

What about the GI50 [55] of the same compound?
The GI50 was 3.66 µM (inactive).

What about the GI50 [56] of the same compound?
Its GI50 is 14 µM (inactive).

And the GI50 [57]?
Its GI50 is 3.01 µM (inactive).
